Data from patent publication US9273040B2 (Merck Sharp & Dohme Corp., priority 2011, dated 2016).

What was measured:
[1] = target: T1, human Nav1.5 channels stably expressed in HEK 293 cells (Homo sapiens, UniProt Q14524); assay: PatchXpress 7000 automated patch-clamp, sodium current; format: cell-based; details: selectivity over Nav1.5
T1 construct: expressed in transfected cells
Outline: (§1)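 IC50 values came from Hill-equation fits of rundown-corrected inhibition. PatchXpress recordings at 22° C held cells 20 mV negative to V0.5 inact and applied 10 Hz trains of 30 ms steps to −20 mV (Nav1.7) or an 8000 ms prepulse 7 mV positive to V0.5 inact. […]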

[2] = target: T2, human Nav1.7 channels stably expressed in HEK 293 cells (Homo sapiens, UniProt Q15858); assay: as above; format: cell-based; details: 22° C., read-out: potency for the Nav 1.7 sodium ion channel (as measured by PatchXpress)
T2 construct: expressed in transfected cells
T2 sequence (Q15858 whole entry): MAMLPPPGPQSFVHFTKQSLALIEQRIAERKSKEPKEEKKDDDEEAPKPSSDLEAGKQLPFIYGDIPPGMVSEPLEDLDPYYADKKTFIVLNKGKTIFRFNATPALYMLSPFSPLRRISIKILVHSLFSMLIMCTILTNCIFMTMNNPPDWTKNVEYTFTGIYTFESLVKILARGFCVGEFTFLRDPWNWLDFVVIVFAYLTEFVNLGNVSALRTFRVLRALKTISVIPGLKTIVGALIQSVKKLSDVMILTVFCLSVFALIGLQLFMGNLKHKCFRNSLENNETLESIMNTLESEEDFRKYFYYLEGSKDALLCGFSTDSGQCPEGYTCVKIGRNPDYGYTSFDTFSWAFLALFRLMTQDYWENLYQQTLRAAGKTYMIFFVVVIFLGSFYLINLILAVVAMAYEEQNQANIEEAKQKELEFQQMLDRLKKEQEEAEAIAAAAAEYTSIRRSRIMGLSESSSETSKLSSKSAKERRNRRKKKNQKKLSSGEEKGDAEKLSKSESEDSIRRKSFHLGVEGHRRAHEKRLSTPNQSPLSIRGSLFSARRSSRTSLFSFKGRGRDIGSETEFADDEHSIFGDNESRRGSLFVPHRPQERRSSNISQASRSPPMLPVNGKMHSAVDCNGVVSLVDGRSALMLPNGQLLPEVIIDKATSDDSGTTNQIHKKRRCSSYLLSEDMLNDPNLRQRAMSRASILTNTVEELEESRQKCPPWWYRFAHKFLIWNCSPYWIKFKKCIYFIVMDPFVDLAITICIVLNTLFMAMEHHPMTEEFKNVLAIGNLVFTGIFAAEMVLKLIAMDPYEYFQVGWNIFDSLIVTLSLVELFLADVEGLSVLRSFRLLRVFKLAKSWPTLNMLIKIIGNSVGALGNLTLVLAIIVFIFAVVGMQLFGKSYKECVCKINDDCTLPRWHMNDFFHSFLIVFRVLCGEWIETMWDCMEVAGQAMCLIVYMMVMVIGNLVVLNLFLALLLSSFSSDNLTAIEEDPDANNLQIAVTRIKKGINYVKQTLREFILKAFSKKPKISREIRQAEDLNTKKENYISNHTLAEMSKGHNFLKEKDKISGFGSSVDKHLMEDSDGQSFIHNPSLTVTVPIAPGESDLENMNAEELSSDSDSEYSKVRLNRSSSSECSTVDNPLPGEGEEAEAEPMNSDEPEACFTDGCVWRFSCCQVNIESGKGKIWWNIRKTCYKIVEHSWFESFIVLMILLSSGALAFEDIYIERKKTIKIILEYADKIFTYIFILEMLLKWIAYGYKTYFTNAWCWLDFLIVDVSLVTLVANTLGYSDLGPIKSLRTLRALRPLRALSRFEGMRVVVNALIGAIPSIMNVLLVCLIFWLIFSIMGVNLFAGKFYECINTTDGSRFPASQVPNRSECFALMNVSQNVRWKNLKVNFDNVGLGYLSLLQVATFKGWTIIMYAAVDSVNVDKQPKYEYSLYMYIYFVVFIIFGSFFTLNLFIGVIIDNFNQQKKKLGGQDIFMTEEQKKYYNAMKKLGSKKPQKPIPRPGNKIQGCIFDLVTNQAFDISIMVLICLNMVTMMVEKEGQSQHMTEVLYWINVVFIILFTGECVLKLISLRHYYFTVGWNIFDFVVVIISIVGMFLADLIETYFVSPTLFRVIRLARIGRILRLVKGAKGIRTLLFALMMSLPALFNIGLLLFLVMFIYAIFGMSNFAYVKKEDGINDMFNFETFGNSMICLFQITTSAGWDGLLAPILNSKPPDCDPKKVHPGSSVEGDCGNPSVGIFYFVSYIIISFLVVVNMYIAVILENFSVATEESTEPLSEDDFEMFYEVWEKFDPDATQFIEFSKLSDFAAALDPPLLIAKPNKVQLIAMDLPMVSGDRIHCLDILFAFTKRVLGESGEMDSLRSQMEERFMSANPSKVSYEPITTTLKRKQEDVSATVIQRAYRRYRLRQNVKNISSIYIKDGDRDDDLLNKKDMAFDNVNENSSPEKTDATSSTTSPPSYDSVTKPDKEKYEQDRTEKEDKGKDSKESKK
Outline: as §1

T1 sequence (Q14524 whole entry): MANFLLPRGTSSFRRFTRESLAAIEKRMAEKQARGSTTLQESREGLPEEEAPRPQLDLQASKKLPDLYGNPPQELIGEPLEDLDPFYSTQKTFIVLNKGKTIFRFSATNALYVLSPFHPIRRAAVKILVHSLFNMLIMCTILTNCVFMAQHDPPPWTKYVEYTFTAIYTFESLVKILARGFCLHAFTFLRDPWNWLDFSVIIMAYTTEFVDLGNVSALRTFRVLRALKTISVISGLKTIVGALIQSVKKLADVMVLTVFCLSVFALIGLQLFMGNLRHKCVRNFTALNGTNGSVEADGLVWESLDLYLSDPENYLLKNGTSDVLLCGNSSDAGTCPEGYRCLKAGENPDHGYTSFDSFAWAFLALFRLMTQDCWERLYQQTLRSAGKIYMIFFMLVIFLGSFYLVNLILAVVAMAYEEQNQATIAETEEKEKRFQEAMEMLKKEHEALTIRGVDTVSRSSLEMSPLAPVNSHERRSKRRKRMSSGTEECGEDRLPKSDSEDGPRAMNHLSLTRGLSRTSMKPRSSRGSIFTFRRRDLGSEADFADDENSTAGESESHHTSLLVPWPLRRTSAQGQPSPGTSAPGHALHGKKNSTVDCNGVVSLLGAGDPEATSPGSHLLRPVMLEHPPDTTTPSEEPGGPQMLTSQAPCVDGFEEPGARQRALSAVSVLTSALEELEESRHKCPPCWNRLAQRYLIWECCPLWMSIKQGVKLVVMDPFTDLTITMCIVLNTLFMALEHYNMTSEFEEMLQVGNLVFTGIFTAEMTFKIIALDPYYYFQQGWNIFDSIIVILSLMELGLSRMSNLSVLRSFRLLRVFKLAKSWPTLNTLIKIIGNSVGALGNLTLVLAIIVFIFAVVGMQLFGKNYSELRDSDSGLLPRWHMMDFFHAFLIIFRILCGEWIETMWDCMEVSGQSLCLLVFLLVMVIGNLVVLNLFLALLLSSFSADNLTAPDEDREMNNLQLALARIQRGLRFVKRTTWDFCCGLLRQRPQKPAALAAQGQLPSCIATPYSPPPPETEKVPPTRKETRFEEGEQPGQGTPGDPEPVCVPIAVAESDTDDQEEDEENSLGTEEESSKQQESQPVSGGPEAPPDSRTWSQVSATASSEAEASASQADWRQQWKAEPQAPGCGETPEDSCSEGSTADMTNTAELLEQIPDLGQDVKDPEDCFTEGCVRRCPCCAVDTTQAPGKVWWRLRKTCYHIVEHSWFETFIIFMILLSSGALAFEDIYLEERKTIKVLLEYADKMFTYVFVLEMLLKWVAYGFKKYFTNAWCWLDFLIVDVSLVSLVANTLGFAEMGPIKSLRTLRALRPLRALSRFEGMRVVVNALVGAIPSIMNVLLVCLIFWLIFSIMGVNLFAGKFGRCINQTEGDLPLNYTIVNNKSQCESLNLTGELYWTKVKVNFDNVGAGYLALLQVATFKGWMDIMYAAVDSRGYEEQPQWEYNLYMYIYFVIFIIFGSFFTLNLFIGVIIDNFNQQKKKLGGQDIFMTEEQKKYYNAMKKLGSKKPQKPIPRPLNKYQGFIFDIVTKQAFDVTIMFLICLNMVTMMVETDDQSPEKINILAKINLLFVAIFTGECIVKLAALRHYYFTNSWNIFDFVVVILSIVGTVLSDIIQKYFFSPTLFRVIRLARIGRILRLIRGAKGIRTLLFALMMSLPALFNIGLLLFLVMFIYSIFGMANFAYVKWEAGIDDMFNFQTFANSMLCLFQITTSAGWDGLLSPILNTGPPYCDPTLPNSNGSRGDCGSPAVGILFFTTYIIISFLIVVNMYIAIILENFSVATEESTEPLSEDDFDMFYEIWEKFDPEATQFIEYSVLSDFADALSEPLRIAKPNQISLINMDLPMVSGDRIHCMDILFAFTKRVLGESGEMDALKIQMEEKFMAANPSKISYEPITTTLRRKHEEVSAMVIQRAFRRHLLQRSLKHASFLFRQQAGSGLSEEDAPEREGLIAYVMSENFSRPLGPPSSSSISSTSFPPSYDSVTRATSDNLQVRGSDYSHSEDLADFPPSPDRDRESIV

Compound | ratio of Nav 1.5:Nav 1.7 potency, determined by PatchXpress measurement [1] | IC50 [2]
O=c1oc2cc(S(=O)(=O)Nc3nccs3)c(F)cc2n1C1CCCc2ccc(F)cc21 (stereo not drawn) [Compound 43-12, 5-fluoro-3-(7-fluoro-1,2,3,4-tetrahydronaphthalen-1-yl)-2-oxo-N-1,3-thiazol-2-yl-2,3-dihydro-1,3-benzoxazole-6-sulfonamide] | 145 | 30 nM
O=c1oc2cc(S(=O)(=O)Nc3nccs3)c(F)cc2n1C1CCCc2ccc(Cl)nc21 (stereo not drawn) [Compound 43-5, 3-(2-chloro-5,6,7,8-tetrahydroquinolin-8-yl)-5-fluoro-2-oxo-N-1,3-thiazol-2-yl-2,3-dihydro-1,3-benzoxazole-6-sulfonamide] | 202 | 416 nM
C[C@H](c1ccccc1C#CCN1CCS(=O)(=O)CC1)n1c(=O)oc2cc(S(=O)(=O)Nc3ncns3)c(F)cc21 [Compound 17-5, 3-[(1R)-1-{2-[3-(1,1-dioxidothiomorpholin-4-yl)prop-1-yn-1-yl]phenyl}ethyl)-5-fluoro-2-oxo-N-1,2,4-thiadiazol-5-yl-2,3-dihydro-1,3-benzoxazole-6-sulfonamide] | 246 | 122 nM
C[C@H](c1ccccc1C#CCNS(C)(=O)=O)n1c(=O)oc2cc(S(=O)(=O)Nc3ncns3)c(Cl)cc21 [Compound 36-6, 5-chloro-3-[(1R)-1-(2-{3-[(methylsulfonyl)amino]prop-1-yn-1-yl}phenyl)ethyl]-2-oxo-N-1,2,4-thiadiazol-5-yl-2,3-dihydro-1,3-benzoxazole-6-sulfonamide] | 175 | 121 nM
Nc1ccc2c(c1)C(n1c(=O)oc3cc(S(=O)(=O)Nc4nccs4)c(F)cc31)CCC2 (stereo not drawn) [Compound 43-14, 3-(7-amino-1,2,3,4-tetrahydronaphthalen-1-yl)-5-fluoro-2-oxo-N-1,3-thiazol-2-yl-2,3-dihydro-1,3-benzoxazole-6-sulfonamide] | 724 | 140 nM
CC(c1cccc2c1CN(S(C)(=O)=O)CC2)n1c(=O)oc2cc(S(=O)(=O)Nc3ncns3)c(Cl)cc21 (racemic) [Compound 36-2, (+/−)-5-chloro-3-{1-[2-(methylsulfonyl)-1,2,3,4-tetrahydroisoquinolin-8-yl]ethyl}-2-oxo-N-1,2,4-thiadiazol-5-yl-2,3-dihydro-1,3-benzoxazole-6-sulfonamide] | 13 | 334 nM
C[C@H](c1ccccc1CN(C)C)n1c(=O)oc2cc(S(=O)(=O)Nc3ncns3)c(F)cc21 [Compound 18-5, 3-[(1R)-1-{2-[(dimethylamino)methyl]phenyl}ethyl]-5-fluoro-2-oxo-N-1,2,4-thiadiazol-5-yl-2,3-dihydro-1,3-benzoxazole-6-sulfonamide] | 525 | 13 nM
COC(=O)[C@H](c1ccccc1)n1c(=O)oc2cc(S(=O)(=O)Nc3nccs3)ccc21 [Compound 41-6, methyl (2S)-[2-oxo-6-(1,3-thiazol-2-ylsulfamoyl)-1,3-benzoxazol-3(2H)-yl](phenyl)ethanoate] | 54 | 553 nM
C[C@H](c1cccc2cncn12)n1c(=O)oc2cc(S(=O)(=O)Nc3ncns3)c(F)cc21 [Compound 15-3, (R)-5-Fluoro-3-(1-(imidazo[1,5-a]pyridin-5-yl)ethyl)-2-oxo-N-(1,2,4-thiadiazol-5-yl)-2,3-dihydrobenzo[d]oxazole-6-sulfonamide] | 122 | 134 nM
Nc1cc2c(Cn3c(=O)oc4cc(S(=O)(=O)Nc5ncns5)c(F)cc43)cccc2cn1 [Compound 26-5, 3-((3-Aminoisoquinolin-5-yl)methyl)-5-fluoro-2-oxo-N-(1,2,4-thiadiazol-5-yl)-2,3-dihydrobenzo[d]oxazole-6-sulfonamide] | 450 | 67 nM
NC1CCc2cccc(Cn3c(=O)oc4cc(S(=O)(=O)Nc5ncns5)c(F)cc43)c2C1 (single isomer, unassigned) [Compound 23-27, (S or R)-3-[(7-amino-5,6,7,8-tetrahydronaphthalen-1-yl)methyl]-5-fluoro-2-oxo-N-1,2,4-thiadiazol-5-yl-2,3-dihydro-1,3-benzoxazole-6-sulfonamide] | 29 | 6 nM
C[C@H](c1cccc(C#CCN)c1)n1c(=O)oc2cc(S(=O)(=O)Nc3ncns3)c(F)cc21 [Compound 30-3, (R)-3-(1-(3-(3-aminoprop-1-yn-1-yl)phenyl)ethyl)-5-fluoro-2-oxo-N-(1,2,4-thiadiazol-5-yl)-2,3-dihydrobenzo[d]oxazole-6-sulfonamide] | 289 | 28 nM
C[C@H](c1ccccc1C#CC1(N)CC1)n1c(=O)oc2cc(S(=O)(=O)Nc3ncns3)c(F)cc21 [Compound 17-1, (R)-3-(1-(2-((1-aminocyclopropyl)ethynyl)phenyl)ethyl)-5-fluoro-2-oxo-N-(1,2,4-thiadiazol-5-yl)-2,3-dihydrobenzo[d]oxazole-6-sulfonamide] | 313 | 96 nM
O=c1oc2cc(S(=O)(=O)Nc3nccs3)c(F)cc2n1C1CCCc2cccnc21 (stereo not drawn) [Compound 43-4, 5-fluoro-2-oxo-3-(5,6,7,8-tetrahydroquinolin-8-yl)-N-1,3-thiazol-2-yl-2,3-dihydro-1,3-benzoxazole-6-sulfonamide] | 71 | 424 nM
C[C@H](c1cccc2c1CNCC2)n1c(=O)oc2cc(S(=O)(=O)Nc3nccs3)c(F)cc21 [Compound 43-15, 5-fluoro-2-oxo-3-[(1R)-1-(1,2,3,4-tetrahydroisoquinolin-8-yl)ethyl]-N-1,3-thiazol-2-yl-2,3-dihydro-1,3-benzoxazole-6-sulfonamide] | 147 | 80 nM
C[C@H](c1ccccc1C1=CCN(S(C)(=O)=O)CC1)n1c(=O)oc2cc(S(=O)(=O)Nc3ncns3)c(F)cc21 [Compound 36-3, 5-fluoro-3-[(1R)-1-{2-[1-(methylsulfonyl)-1,2,3,6-tetrahydropyridin-4-yl]phenyl}ethyl]-2-oxo-N-1,2,4-thiadiazol-5-yl-2,3-dihydro-1,3-benzoxazole-6-sulfonamide] | 88 | 255 nM
C[C@H](c1ccccc1C#CCO)n1c(=O)oc2cc(S(=O)(=O)Nc3ncns3)c(F)cc21 [Compound 17-9, 5-fluoro-3-{(1R)-1-[2-(3-hydroxyprop-1-yn-1-yl)phenyl]ethyl}-2-oxo-N-1,2,4-thiadiazol-5-yl-2,3-dihydro-1,3-benzoxazole-6-sulfonamide] | 45 | 58 nM
C[C@H](c1cccc2c1CNCC2)n1c(=O)oc2cc(S(=O)(=O)Nc3ncns3)c(Br)cc21 [Compound 35-5, (R)-5-bromo-2-oxo-3-(1-(1,2,3,4-tetrahydroisoquinolin-8-yl)ethyl)-N-(1,2,4-thiadiazol-5-yl)-2,3-dihydrobenzo[d]oxazole-6-sulfonamide] | 932 | 16 nM
C[C@@H](c1ccccc1C1CNC1)n1c(=O)oc2cc(S(=O)(=O)Nc3nccs3)c(F)cc21 [Compound 43-20, 3-[(1S)-1-(2-azetidin-3-ylphenyl)ethyl]-5-fluoro-2-oxo-N-1,3-thiazol-2-yl-2,3-dihydro-1,3-benzoxazole-6-sulfonamide] | 48 | 621 nM
Cc1cccc2c1CCCC2n1c(=O)oc2cc(S(=O)(=O)Nc3ncns3)c(F)cc21 (stereo not drawn) [Compound 39-5, 5-fluoro-3-(5-methyl-1,2,3,4-tetrahydronaphthalen-1-yl)-2-oxo-N-1,2,4-thiadiazol-5-yl-2,3-dihydro-1,3-benzoxazole-6-sulfonamide] | 14 | 261 nM
C[C@H](c1ccccc1)n1c(=O)oc2cc(S(=O)(=O)Nc3nccs3)ccc21 [Compound 41-4, (R)-2-oxo-3-(1-phenylethyl)-N-(thiazol-2-yl)-2,3-dihydrobenzo[d]oxazole-6-sulfonamide] | 187 | 161 nM
C[C@H](c1ccccc1C1(O)CNC1)n1c(=O)oc2cc(S(=O)(=O)Nc3ncns3)c(F)cc21 [Compound 32-4, (R)-5-fluoro-3-(1-(2-(3-hydroxyazetidin-3-yl)phenyl)ethyl)-2-oxo-N-(1,2,4-thiadiazol-5-yl)-2,3-dihydrobenzo[d]oxazole-6-sulfonamide] | 110 | 34 nM
O=c1oc2cc(S(=O)(=O)Nc3ncns3)c(F)cc2n1Cc1cccc2c1CC(N1CCC(F)(F)C1)CC2 (racemic) [Compound 23-5, (+/−)-3-{[7-(3,3-difluoropyrrolidin-1-yl)-5,6,7,8-tetrahydronaphthalen-1-yl]methyl}-5-fluoro-2-oxo-N-1,2,4-thiadiazol-5-yl-2,3-dihydro-1,3-benzoxazole-6-sulfonamide] | 78 | 278 nM
C[C@H](c1ccccc1C#CCN)n1c(=O)oc2cc(S(=O)(=O)Nc3ncns3)c(Br)cc21 [Compound 35-6, 3-{(1R)-1-[2-(3-aminoprop-1-yn-1-yl)phenyl]ethyl}-5-bromo-2-oxo-N-1,2,4-thiadiazol-5-yl-2,3-dihydro-1,3-benzoxazole-6-sulfonamide] | 334 | 27 nM
